Measured values: patent US5198430A, “Inclusion complexes with silybinin, their preparation and pharmaceutical compositions containing them” (Istituto Biochimico Italiano Giovanni Lorenzini SpA, priority 1989, dated 1993)

How the values were obtained:
[1] = in vivo; parameters: species or system Wistar rats; conditions: po, 8 mg/kg
Description: The absorption of the complexes of the invention has been evaluated by orally administering an aqueous solution of the composition under examination and measuring by HPLC the Silybinin bile levels. This test has been preferred because it is well known that drugs of the Silymarin kind reach in the bile the highest concentration.
The experiments have been carried out on Wistar rats weighing 180-200 g to which the compositions under examination were administered by gastric intubation. The animals were kept on an empty stomach for 16 hours. The composition to be tested was dissolved in water containing 10% of gum Arabic and were prepared solutions so that each animal was administered,each time with an amount of 5 ml/kg of said solution.
Immediately after the treatment the animals were anaesthetized and operated to check the coledocous duct. A small tube was inserted therein and the bile was collected over a period of 24 hours.
For the analytical determination 1 ml bile was treated as described in the following publication: D. Lorenz et al, Pharmacokinetic Studies with Silymarin in Human Serum and Bile--Meth. and Find.Exptl.Clin.Pharmacol.6(10) 655-661 (1984).
in test A, there were administered 20 mg/kg of Silymarin, according to a known commercial formulation which corresponds to 8 mg/kg of pure Silybinin,
in test B, there were administered 8.79 mg/kg of Silybinin having a HPLC titre of 91%, which corresponds to 8 mg/kg of pure Silybinin, used such as without excipients, […]

[2] = Resorption: excretion of Silybinin in rat bile after intragastric administration, quantitative TLC; parameters: species or system male Wistar SPF rats; conditions: in vivo, po, 5 mg/kg
Description: In a further experiment the resorption of Silymarin, Silybinin and of the complex of Example 6 was evaluated. For this purpose the excretion of Silybinin in the rat bile was determined in a conventional model experiment. Anesthetized male Wistar SPF rats kept under conventional conditions, were cannulated at the ductus choledochus. After intragastric administration of the test compound (5 mg Silybinin/kg) the bile fluid was collected for 5hr. The Silybinin content in the bile fluid was determined by quantitative thin layer chromatography.

[3] = pH 7.5
Description: Release experiments with Silybinin, Silymarin and the complex of this Example were carried out according to USP XXII, paddle apparatus at pH 7.5 and 37° C.

[4] = Thermoanalytical studies (TG, DTG, DSC, TEA); assay type: physicochemical
Description: Thermoanalytical investigations were carried out on a Du Pont 990 Thermal Analyser System. TG (Thermogravimetry) DTG (Differential TG) DSC (Differential Scanning Calorimetry) and TEA (Thermal Evolution Analysis) curves of the drug, as well as those of its mechanical mixtures with DIMEB and HP-βCD and the complexes were taken simultaneously.

Row | Compound | 0-24 hr Silybinin in bile per rat [1] | % excreted Silybinin ([1]; rat, 1440 min) | Bile 0-24 hr Silybinin level ([1]; rat, 1440 min) | dose excreted at 5 h [2] | release (solubility) [3] | concentration at 24 h ([1]; rat) | dose excreted at 24 h ([1]; rat) | temperature at which decomposition of the drug begins ([4]; DSC, FIG. 4, non-complexed Silybinin) | loss of weight up to 160° C. ([4]; first decomposition step) | start of second decomposition step ([4]; region of the cyclodextrin decomposition)
1 | Silybinin: β-cyclodextrin Inclusion Complex (Molar Ratio 1:1) [Example 1] | 256.6 mcg/rat | 11.7% | 17.6 µg/mL | – | – | – | – | – | – | –
2 | COc1cc(C2Oc3cc(C4Oc5cc(O)cc(O)c5C(=O)C4O)ccc3OC2CO)ccc1O (centres unmarked) [Silybinin] | 11.9 mcg/rat | – | – | 0.21% | 0% | 1000 ng/mL | 0.6% | about 130 °C | 4-5% | above 250 °C
